From US10300143B2, “Compositions for treating cancer and methods for making the same” (THE BRIGHAM AND WOMEN'S HOSPITAL, INC., priority 2012, dated 2019)
Read-outs that look alike come from different tables or passages of the source.

How the values were obtained:
[1] = tested on: Lewis lung carcinoma (LLC) cells; test: Cell viability assay (MTS), platinates; format: cell-based; settings: 48 h
Method: (§1) The LLC cells, breast cancer cell line (4T1), and hepatocellular carcinoma cells (CP20) were seeded into 96-well flat bottomed plates (4×10^3 cells per well). Drugs or SACNs were added at equivalent Pt concentrations and incubated for 48 h. Viability was quantified using the Cell-Titer 96 Aqueous One Solution™ reagent. Cellular apoptosis was quantified using Annexin-V-Alexa Fluor™ 488 conjugate and propidium iodide staining followed by FACS.
(§2) The Lewis lung carcinoma (LLC) cells, breast cancer cell line (4T1), and hepatocellular carcinoma cells (CP20) were purchased from American Type Culture Collection. LLC cells and CP20 cells were cultured in DMEM and 4T1 cells were cultured in RPMI medium 1640-supplemented with 10% FBS, 50 unit/mL penicillin, and 50 unit/mL streptomycin. Trypsinized cultured LLC, 4T1, and CP20 cells were washed twice with PBS and seeded into 96-well flat-bottomed plates (4×10^3 cells per well). Free drugs and SACNs were added at appropriate concentrations (0.01, 0.1, 1, 10, 20, 50 μM Pt concentration). […] After 2 h incubation in 5% CO2 atmosphere at 37° C., the absorbance in each well was recorded at 490 nm using an Epoch (BioTek™) plate reader. Results were quantified by subtracting the blank value from each value then normalizing against the control values and results were analyzed by using Prism™ software (GraphPad). […]

[2] = tested on: 4T1 breast cancer cell line; test: Cell viability assay (MTS), platinates; format: cell-based, murine; settings: 48 h
Method: as §1, §2

4T1 breast tumors = tested on: 4T1 breast tumors
Method: The 4T1 breast cancer cells (3×10^5) were implanted subcutaneously in the flanks of 4-wk-old BALB/c mice. […] PBS (100 μL) by tail-vain injection was used as a control for drug treatment. Treatment was started on day 9 postimplantation, and administered every alternate day till day 13. The tumor volumes and body weights were monitored on a daily basis. The tumor volume was calculated by using the formula, L×B^2.
(§3) The tissues were fixed in 10% formalin, paraffin-embedded, and sectioned at the Harvard Medical School Core Facility. Tumor and kidney paraffin sections were deparaffinized and stained with a standard TMR red fluorescent TUNEL kit following the manufacturer's protocol (In Situ Cell Death Detection Kit™, TMR-Red; Roche). The kidney sections were also immunolabeled for KIM1 expression. Images were obtained using a Nikon Eclipse TE2000™ fluorescence microscope equipped with red filter.
The 4T1 breast cancer cells (3×105) were implanted subcutaneously in the flanks of 4-wk-old BALB/c mice (weighing 20 g; Charles River Laboratories). The drug therapy was started on day 9. […] PBS (100 μL) administered by tail-vain injection was used as a control for drug treatment. The tumor volumes and body weights were monitored on a daily basis. The tumor volume was calculated by using the formula, L×B2, where the longest diameter was considered as L and the shortest diameter as measured using a vernier caliper as B. The animals were killed when the average tumor volume of the control exceeded 2,000 mm3 in the control group. The tumors were harvested immediately following sacrifice and stored in 10% formalin for further analysis. All animal procedures were approved by the Harvard Institutional Use and Care of Animals Committee.
as §3, with “with” for “with a”, “Roche).” for “Roche). The kidney sections were also immunolabeled for KIM1 expression.”, “TE2000” for “TE2000™”

4T1 cells = test: FACS analysis of apoptosis (Annexin-V/PI); format: cell-based, murine; settings: 1 μM Pt, 24 h
Method: The LLC cells, breast cancer cell line (4T1), and hepatocellular carcinoma cells (CP20) were seeded into 96-well flat bottomed plates (4×10^3 cells per well). Drugs or SACNs were added at equivalent Pt concentrations and incubated for 48 h. Viability was quantified using the Cell-Titer 96 Aqueous One Solution™ reagent. Cellular apoptosis was quantified using Annexin-V-Alexa Fluor™ 488 conjugate and propidium iodide staining followed by FACS. […] After 24 h, the cells were washed with PBS and collected at 0° C. The cells were then treated with Annexin-V-Alexa Fluor 488™ conjugate (Molecular Probes, Invitrogen) and incubated in the dark, at room temperature, for 15 min. The cells were then washed with PBS and incubated with propidium iodide (PI) solution ([…]; Sigma) containing RNase (1 mg/mL; Sigma). The cell suspension were then transferred to FACS tubes and analyzed for Annexin-V/PI staining on a BD FACS Calibur™ instrument. Data were analyzed using a CellQuestPro™ software (BD Biosciences).

[3] = tested on: cisplatin-resistant hepatocellular carcinoma (7404-CP20) cell line; test: Cell viability assay (MTS), platinates; format: cell-based, human; settings: 48 h
Method: as §1, §2

[4] = Maximum tolerated dose (20% body weight loss); format: in vivo, BALB/c mice
[5] = tested on: K-Ras^LSL/+/Pten^fl/fl ovarian cancer; test: In vivo K-ras^LSL/+/Pten^fl/fl ovarian cancer model, platinates; parameters: species or system mice; settings: Pt dose equivalent to 3 mg/kg of cisplatin
[6] = single dose, Pt equivalent to 8 mg/kg cisplatin

N.N.O=C([O-])C1(C(=O)[O-])CCC1.[Pt+2] [carboplatin]
inhibitory activity (cell viability) [1]: In neither of these cell lines did carboplatin exert any inhibitory activity at this concentration range
inhibitory activity (cell viability) [2]: In neither of these cell lines did carboplatin exert any inhibitory activity at this concentration range
survival (4T1 breast tumors; [6]): only minor increase in survival over vehicle-treated controls

N.N.[Cl][Pt][Cl] [cisplatin, cis-dichlorodiamineplatinum (II)]
apoptosis and necrosis (4T1 cells): more efficacious than carboplatin
IC50 [3]: 42.84 ± 0.04 µM
IC50 [1]: 2.91 ± 0.015 µM
IC50 [2]: 4.72 ± 0.016 µM
tumor growth (4T1 breast tumors; multiple dose, 1 and 3 mg/kg, days 9, 11, 13): dose-dependent inhibition of tumor growth
survival (4T1 breast tumors; multiple dose, higher dose): increase survival
tumor inhibition (4T1 breast tumors; multiple dose, highest doses (3 mg/kg Pt)): identical
tumor inhibition (4T1 breast tumors; multiple dose, lower doses (1 mg/kg Pt)): greater tumor inhibition as opposed to the higher dose of carboplatin
survival (4T1 breast tumors; [6]): only minor increase in survival over vehicle-treated controls
maximum tolerated dose (MTD) [4]: 9 mg/kg
kidney cell death (TUNEL) [5]: induced apoptosis of nephrons
tumor apoptosis (TUNEL) [5]: apoptosis
